Source: patent publication US20160280688A1, “SUBSTITUTED PHENYLALANINE DERIVATIVES” (BAYER PHARMA AKTIENGESELLSCHAFT, priority 2013, published 2016)
pIC50: −log10 of the molar value. Counter-ions that a name gives are not always drawn.

Assays:
Type in all cases: biochemical
human factor XIa = target: T1, human factor XIa (Homo sapiens, UniProt P03951); test: Measurement of FXIa inhibition (fluorogenic peptide substrate Boc-Glu(OBzl)-Ala-Arg-AMC); details: factor XIa from Kordia, 15 min preincubation, 30 min at 22° C., fluorescence
T1 construct: purchased Kordia
T1 sequence (P03951 388-625 limits assumed): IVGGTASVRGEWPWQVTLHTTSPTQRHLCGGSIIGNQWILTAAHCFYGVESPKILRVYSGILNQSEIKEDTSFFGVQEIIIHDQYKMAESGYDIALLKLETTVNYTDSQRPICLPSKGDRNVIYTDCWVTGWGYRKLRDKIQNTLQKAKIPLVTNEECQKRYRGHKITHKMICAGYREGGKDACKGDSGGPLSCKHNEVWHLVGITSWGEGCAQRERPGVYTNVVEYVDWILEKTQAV
T1 sequence (P03951 19-387 partner limits assumed): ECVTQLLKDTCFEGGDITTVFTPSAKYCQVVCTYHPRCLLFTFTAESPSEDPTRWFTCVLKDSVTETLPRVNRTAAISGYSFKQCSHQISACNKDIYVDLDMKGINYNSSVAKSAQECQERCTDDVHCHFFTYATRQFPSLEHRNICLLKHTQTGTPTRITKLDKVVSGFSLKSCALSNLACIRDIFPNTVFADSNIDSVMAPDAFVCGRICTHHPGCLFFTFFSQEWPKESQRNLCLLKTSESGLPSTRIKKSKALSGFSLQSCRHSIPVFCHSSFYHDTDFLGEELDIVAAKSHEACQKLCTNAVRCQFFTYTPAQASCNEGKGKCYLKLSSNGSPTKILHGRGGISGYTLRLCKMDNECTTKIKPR
Experimental: To determine the factor XIa inhibition of the substances according to the invention, a biochemical test system is used which utilizes the reaction of a peptidic factor XIa substrate to determine the enzymatic activity of human factor XIa. Here, factor XIa cleaves from the peptic factor XIa substrate the C-terminal aminomethylcoumarin (AMC), the fluorescence of which is measured. The determinations are carried out in microtitre plates.
(§1) Test substances are dissolved in dimethyl sulphoxide and serially diluted in dimethyl sulphoxide (3000 μM to 0.0078 μM; resulting final concentrations in the test: 50 μM to 0.00013 μM). In each case 1 μl of the diluted substance solutions are placed into the wells of white microtitre plates from Greiner (384 wells). Subsequently, the following are added successively: 20 μl of assay buffer (50 mmol/l Tris buffer pH 7.4; 100 mmol/l sodium chloride; 5 mmol/l calcium chloride; 0.1% bovine serum albumin) and 20 μl of factor XIa from Kordia (0.45 nM in assay buffer). After 15 min of incubation, the enzyme reaction is started by addition of 20 μl of the factor XIa substrate Boc-Glu(OBzl)-Ala-Arg-AMC dissolved in assay buffer (10 μM in assay buffer) from Bachem, the mixture is incubated at room temperature (22° C.) for 30 min and fluorescence is then measured (excitation: 360 nm, emission: 460 nm). The measured emissions of the test batches with test substance are compared to those of control batches without test substance (only dimethyl sulphoxide instead of test substance in dimethyl sulphoxide), and IC50 values are calculated from the concentration/activity relationships.

human plasmin = target: T2, human plasmin (Homo sapiens, UniProt P00747); test: Measurement of plasmin inhibition (fluorogenic peptide substrate MeOSuc-Ala-Phe-Lys-AMC); details: plasmin from Kordia, 15 min preincubation, 30 min at 22° C., fluorescence
T2 construct: purchased Kordia
T2 sequence (P00747 581-810 limits assumed): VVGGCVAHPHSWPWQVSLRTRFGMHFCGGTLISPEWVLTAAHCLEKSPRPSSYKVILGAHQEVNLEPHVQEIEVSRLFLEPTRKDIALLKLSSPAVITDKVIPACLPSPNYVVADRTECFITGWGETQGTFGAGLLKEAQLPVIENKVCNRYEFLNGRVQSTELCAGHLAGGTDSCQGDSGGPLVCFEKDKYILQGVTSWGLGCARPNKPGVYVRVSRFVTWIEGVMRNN
T2 sequence (P00747 97-580 partner limits assumed): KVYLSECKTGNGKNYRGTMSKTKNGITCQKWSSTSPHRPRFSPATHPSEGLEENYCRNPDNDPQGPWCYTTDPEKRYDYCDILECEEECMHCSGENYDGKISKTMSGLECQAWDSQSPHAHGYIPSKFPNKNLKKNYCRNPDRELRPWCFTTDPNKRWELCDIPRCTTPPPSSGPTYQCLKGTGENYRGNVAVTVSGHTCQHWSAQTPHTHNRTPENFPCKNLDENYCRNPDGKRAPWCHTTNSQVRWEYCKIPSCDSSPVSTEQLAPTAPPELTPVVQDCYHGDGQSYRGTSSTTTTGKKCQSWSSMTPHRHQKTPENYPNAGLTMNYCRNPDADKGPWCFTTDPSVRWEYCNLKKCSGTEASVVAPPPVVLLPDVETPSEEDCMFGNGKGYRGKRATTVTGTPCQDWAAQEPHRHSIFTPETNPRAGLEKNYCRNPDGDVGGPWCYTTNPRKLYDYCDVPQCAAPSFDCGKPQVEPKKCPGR
Experimental: The plasmin inhibition of the inventive substances is determined using a biochemical test system which utilizes the reaction of a peptidic plasmin substrate to determine the enzymatic activity of human plasmin. Here, plasmin cleaves from the peptic plasmin substrate the C-terminal aminomethylcoumarin (AMC), the fluorescence of which is measured. The determinations are carried out in microtitre plates.
as §1, with “plasmin” for “factor XIa”, “(0.3 μg/ml” for “(0.45 nM”, “MeOSuc-Ala-Phe-Lys-AMC” for “Boc-Glu(OBzl)-Ala-Arg-AMC”, “(150” for “(10”, “ICso” for “IC50”

human and animal plasma = test: Determination of the anticoagulatory activity: activated partial thromboplastin time (aPTT) in plasma; details: in vitro in plasma, C.K. Prest kit, 3 min at 37° C.
Experimental: The anticoagulatory activity of the test substances is determined in vitro in human and animal plasma (for example mouse, rat, rabbit, pig and dog plasma). To this end, blood is drawn off in a mixing ratio of sodium citrate/blood of 1:9 using a 0.11 molar sodium citrate solution as receiver. Immediately after the blood has been drawn off, it is mixed thoroughly and centrifuged at about 4000 g for 15 minutes. The supernatant is pipetted off.
The activated partial thromboplastin time (aPTT) is determined in the presence of varying concentrations of test substance or the corresponding solvent using a commercial test kit (C.K. Prest from Diagnostica Stago). The test compounds are incubated with the plasma and the PTT reagent (cephalin, kaolin) at 37° C. for 3 minutes. Coagulation is then started by addition of a 25 mM aqueous calcium chloride solution, and the time when coagulation occurs is determined. The concentration of test substance which brings about a 1.5-fold extension of the aPTT is determined Activity data from this test are listed in Table B below: […]

Compound	pIC50 (human factor XIa)	pIC50 (human plasmin)	aPTT (concentration of test substance which brings about a 1.5-fold extension of the aPTT) (human and animal plasma) [µmol/L]
Cc1cc2c(=O)n(C(C)C)[nH]c2cc1-c1ccc(C[C@H](NC(=O)[C@H]2CC[C@H](CN)CC2)C(=O)Nc2ccc3[nH]c(=O)[nH]c3c2)cc1 [Example 34, N-alpha-{[trans-4-(Aminomethyl)cyclohexyl]carbonyl}-4-(2-isopropyl-5-methyl-3-oxo-2,3-dihydro-1H-indazol-6-yl)-N-(2-oxo-2,3-dihydro-1H-benzimidazol-5-yl)-L-phenylalaninamide hydrochloride]	8.82	8.77	0.11
CC(C)n1[nH]c2cc(-c3ccc(C[C@H](NC(=O)[C@H]4CC[C@H](CN)CC4)C(=O)Nc4ccc5cn[nH]c5c4)cc3)ccc2c1=O [Example 32, N-alpha-{[trans-4-(Aminomethyl)cyclohexyl]carbonyl}-N-1H-indazol-6-yl-4-(2-isopropyl-3-oxo-2,3-dihydro-1H-indazol-6-yl)-L-phenylalaninamide hydrochloride]	7.55	8.06	0.43
Cc1cc2[nH]c(C(C)C)nc2cc1-c1ccc(C[C@H](NC(=O)[C@H]2CC[C@H](CN)CC2)C(=O)Nc2ccc3[nH]c(=O)[nH]c3c2)cc1 [Example 19, N-alpha-{[trans-4-(Aminomethyl)cyclohexyl]carbonyl}-4-(2-isopropyl-6-methyl-1H-benzimidazol-5-yl)-N-(2-oxo-2,3-dihydro-1H-benzimidazol-5-yl)-L-phenylalaninamide]	8.51	8.89	
Cc1cc2nc[nH]c2cc1-c1ccc(C[C@H](NC(=O)C2CCC(CN)CC2)C(=O)Nc2ccc(-c3nn[nH]n3)cc2)cc1 (stereo partly drawn) [Example 1, N-alpha-{[trans-4-(Aminomethyl)cyclohexyl]carbonyl}-4-(5-methyl-1H-benzimidazol-6-yl)-N-[4-(2H-tetrazol-5-yl)phenyl]-L-phenylalaninamide hydrochloride]	9.05	7.66	0.07
Cc1cc2[nH]c(C(C)C)nc2cc1-c1ccc(C[C@H](NC(=O)C2CCC(CN)CC2)C(=O)Nc2ccc3[nH]c(=O)[nH]c3c2)cc1 (single isomer, unassigned; enantiomer 2) [Example 39, N-alpha-{[trans-4-(Aminomethyl)cyclohexyl]carbonyl}-4-(2-isopropyl-6-methyl-1H-benzimidazol-5-yl)-N-(2-oxo-2,3-dihydro-1H-benzimidazol-5-yl)-L-phenylalaninamide hydrochloride (Enantiomer 2)]	8.96	9.19	
Cc1nc2[nH]c(C3CC3)nc2cc1-c1ccc(C[C@H](NC(=O)[C@H]2CC[C@H](CN)CC2)C(=O)Nc2ccc3[nH]c(=O)[nH]c3c2)cc1 [Example 21, N-alpha-{[trans-4-(Aminomethyl)cyclohexyl]carbonyl}-4-(2-cyclopropyl-5-methyl-1H-imidazo[4,5-b]pyridin-6-yl)-N-(2-oxo-2,3-dihydro-1H-benzimidazol-5-yl)-L-phenylalaninamide]	9.15	9.40	0.3
Cc1cc2nc(C(C)C)[nH]c2nc1-c1ccc(C[C@H](NC(=O)[C@H]2CC[C@H](CN)CC2)C(=O)Nc2ccc3[nH]c(=O)[nH]c3c2)cc1 [Example 37, N-alpha-{[trans-4-(Aminomethyl)cyclohexyl]carbonyl}-4-(2-isopropyl-6-methyl-3H-imidazo[4,5-b]pyridin-5-yl)-N-(2-oxo-2,3-dihydro-1H-benzimidazol-5-yl)-L-phenylalaninamide hydrochloride]	8.31	9.30	0.06
Cc1c(-c2ccc(C[C@H](NC(=O)[C@H]3CC[C@H](CN)CC3)C(=O)Nc3ccc4[nH]c(=O)[nH]c4c3)cc2)cc2nc(C3CCC3)[nH]c2c1F [Example 27, N-alpha-{[trans-4-(Aminomethyl)cyclohexyl]carbonyl}-4-(2-cyclobutyl-7-fluoro-6-methyl-1H-benzimidazol-5-yl)-N-(2-oxo-2,3-dihydro-1H-benzimidazol-5-yl)-L-phenylalaninamide]	9.05	9.35	0.16
Cc1cc2[nH]c(C3CC3)nc2cc1-c1ccc(C[C@H](NC(=O)[C@H]2CC[C@H](CN)CC2)C(=O)Nc2cc(Cl)c3[nH]c(=O)[nH]c3c2)cc1 [Example 20, N-alpha-{[trans-4-(Aminomethyl)cyclohexyl]carbonyl}-N-(7-chloro-2-oxo-2,3-dihydro-1H-benzimidazol-5-yl)-4-(2-cyclopropyl-6-methyl-1H-benzimidazol-5-yl)-L-phenylalaninamide]	9.05	9.40	0.26
NC[C@H]1CC[C@H](C(=O)N[C@@H](Cc2ccc(-c3ccc4c(c3)NC(=O)CC4)cc2)C(=O)Nc2ccc(-c3nn[nH]n3)cc2)CC1 [Example 9, N-alpha-{[trans-4-(Aminomethyl)cyclohexyl]carbonyl}-4-(2-oxo-1,2,3,4-tetrahydroquinolin-7-yl)-N-[4-(2H-tetrazol-5-yl)phenyl]-L-phenylalaninamide hydrochloride]	8.43	7.60	
Cc1cc2[nH]c(C(C)C)nc2cc1-c1ccc(C[C@@H](NC(=O)C2CCC(CN)CC2)C(=O)Nc2ccc3[nH]c(=O)[nH]c3c2)cc1 (single isomer, unassigned; enantiomer 1) [Example 38, N-alpha-{[trans-4-(Aminomethyl)cyclohexyl]carbonyl}-4-(2-isopropyl-6-methyl-1H-benzimidazol-5-yl)-N-(2-oxo-2,3-dihydro-1H-benzimidazol-5-yl)-D-phenylalaninamide hydrochloride (Enantiomer 1)]	7.43	7.70	
Cc1cc2nc[nH]c2cc1-c1ccc(C[C@H](NC(=O)[C@H]2CC[C@H](CN)CC2)C(=O)Nc2ccc3c(=O)[nH][nH]c3c2)cc1 [Example 8, N-alpha-{[trans-4-(Aminomethyl)cyclohexyl]carbonyl}-4-(5-methyl-1H-benzimidazol-6-yl)-N-(3-oxo-2,3-dihydro-1H-indazol-6-yl)-L-phenylalaninamide hydrochloride]	8.22	7.68	
NC[C@H]1CC[C@H](C(=O)N[C@@H](Cc2ccc(-c3ccc4c(c3)NC(=O)CC4)cc2)C(=O)Nc2ccc(-c3nn[nH]n3)c(F)c2)CC1 [Example 12, N-alpha-{[trans-4-(Aminomethyl)cyclohexyl]carbonyl}-N-[3-fluoro-4-(2H-tetrazol-5-yl)phenyl]-4-(2-oxo-1,2,3,4-tetrahydroquinolin-7-yl)-L-phenylalaninamide hydrochloride]	8.62	8.23	
Cc1cc2nc(C(C)C)[nH]c2cc1-c1ccc(C[C@H](NC(=O)[C@H]2CC[C@H](CN)CC2)C(=O)Nc2ccc(-c3nnc(C(F)(F)C(F)(F)C(=O)O)[nH]3)cc2)cc1 [Example 24, 3-[5-(4-{[N-{[trans-4-(Aminomethyl)cyclohexyl]carbonyl}-4-(2-isopropyl-6-methyl-1H-benzimidazol-5-yl)-L-phenylalanyl]amino}phenyl)-4H-1,2,4-triazol-3-yl]-2,2,3,3-tetrafluoropropanoic acid hydrochloride]	9.30	8.85	
